Like-named read-outs stand apart in the source and are kept apart here.
Key:
[1] = test system: patients with ES-SCLC; conditions: IMpower133; cited from earlier work
[2] = test system: human-derived tumour xenografts; assay: Tumour susceptibility in xenografts of human-derived tumour types; format: in vivo, athymic mice; conditions: single bolus i.v. at rodent MTD 0.3 mg/kg
[3] = rat, in vivo
[4] = dog, in vivo
[5] = test system: UM-UC-3 bladder xenograft; assay: In vivo antitumour activity in xenografts; design: species or system athymic mice; conditions: Bladder UM-UC-3; Qd × 5 × 2; 0.06 mg/kg/day (0.18 mg/m^2/day); optimal day D-23
[6] = test system: CYP isoforms; assay: In vitro metabolism studies with human microsomes; format: in vitro ADME; conditions: followed by CYP2E1, CYP2D6 and CYP2C9
Excerpt: The estimated contribution of the other CYP isoenzymes to the PM01183 metabolism is considered to be negligible. Therefore, concomitant drugs which induce or inhibit any of these cytochromes, especially CYP3A4, should be carefully monitored or avoided, whenever is possible.

[7] = test system: Capan-1 pancreas xenograft; assay: In vivo antitumour activity in xenografts; design: species or system athymic mice; conditions: Pancreas Capan-1; Q7d × 3; 0.18 mg/kg/day (0.54 mg/m^2/day); optimal day D-61
[8] = test system: MDA-MB-231; assay: MTT short-term viability assay, 72 hours exposure; format: cell-based; conditions: Homo sapiens, Breast, read-out: IG50 (the source's name)
Description: (§1) The antineoplastic in vitro activity of lurbinectedin was evaluated in a panel of solid tumour cell lines (some of which are shown in Table 1), which were exposed to a range of lurbinectedin concentrations for 72 hours and then assayed for viability by a MTT short-term assay.

[9] = test system: IGROV-1; assay: MTT short-term viability assay, 72 hours exposure; format: cell-based; conditions: Homo sapiens, Ovarian, read-out: IG50 (the source's name)
Description: as §1

[10] = test system: HT-29; assay: MTT short-term viability assay, 72 hours exposure; format: cell-based; conditions: Homo sapiens, Colon, read-out: IG50 (the source's name)
Description: as §1

[11] = test system: HCT 116; assay: MTT short-term viability assay, 72 hours exposure; format: cell-based; conditions: Homo sapiens, Colon, read-out: IG50 (the source's name)
Description: as §1

[12] = test system: A2780; assay: MTT short-term viability assay, 72 hours exposure; format: cell-based; conditions: Homo sapiens, Ovarian, read-out: IG50 (the source's name)
Description: as §1

[13] = test system: LoVo; assay: MTT short-term viability assay, 72 hours exposure; format: cell-based; conditions: Homo sapiens, Colon, read-out: IG50 (the source's name)
Description: as §1

[14] = test system: NCl-H460; assay: MTT short-term viability assay, 72 hours exposure; format: cell-based; conditions: Lung, read-out: IG50 (the source's name)
Description: as §1

[15] = test system: MCF-7; assay: MTT short-term viability assay, 72 hours exposure; format: cell-based; conditions: Homo sapiens, MCF7, Breast, read-out: IG50 (the source's name)
Description: as §1

[16] = test system: NCl-H23; assay: MTT short-term viability assay, 72 hours exposure; format: cell-based; conditions: Lung, read-out: IG50 (the source's name)
Description: as §1

[17] = test system: A-549; assay: MTT short-term viability assay, 72 hours exposure; format: cell-based; conditions: Homo sapiens, A549, Lung, read-out: IG50 (the source's name)
Description: as §1

[18] = test system: BT-474; assay: MTT short-term viability assay, 72 hours exposure; format: cell-based; conditions: Homo sapiens, Breast, read-out: IG50 (the source's name)
Description: as §1

[19] = test system: PANC-1; assay: MTT short-term viability assay, 72 hours exposure; format: cell-based; conditions: Homo sapiens, Pancreas, read-out: IG50 (the source's name)
Description: as §1

[20] = test system: MiaPaca-2; assay: MTT short-term viability assay, 72 hours exposure; format: cell-based; conditions: Homo sapiens, MIA PaCa-2, Pancreas, read-out: IG50 (the source's name)
Description: as §1

[21] = test system: MDA-MB-231 breast xenograft; assay: In vivo antitumour activity in xenografts; design: species or system athymic mice; conditions: Breast MDA-MB-231; Q7d × 3; 0.18 mg/kg/day (0.54 mg/m^2/day); optimal day D-34
[22] = test system: MX-1 breast xenograft; assay: In vivo antitumour activity in xenografts; design: species or system athymic mice; conditions: Breast MX-1; Q7d × 3; 0.18 mg/kg/day (0.54 mg/m^2/day); optimal day D-21
[23] = test system: patients with advanced and refractory solid tumours; design: species or system human; conditions: in vivo
Description: The completed PM1183-A-001-08 phase I trial evaluated i.v. lurbinectedin in human patients for the first time, when infused over one hour (h) every three weeks (q3 wk) in 31 patients with advanced and refractory solid tumours. Among these, 15 (48.4%) patients were treated at the defined recommended dose (RD). The RD for phase II studies was defined at a PM01183 dose of 4.0 mg/m^2 q3 wk-equivalent to a 7.0 mg flat dose (FD) q3 wk. […] No signs of cumulative toxicity were observed.

[24] = test system: broad selection of tumour-derived cell lines; assay: In vitro cytotoxic effects against tumour-derived cell lines; format: cell-based; conditions: read-out: median IC50
[25] = test system: A2780 ovary xenograft; assay: In vivo antitumour activity in xenografts; design: species or system athymic mice; conditions: Q7d × 3, 0.18 mg/kg/day (0.54 mg/m^2/day), optimal day D-17
[26] = PM1183-A-008-13 phase I study, interaction with aprepitant; format: in vivo, human; conditions: in the presence of aprepitant (CYP3A4 inhibitor), patients
Excerpt: PM01183 clearance was reduced by 50%, approximately, in the presence of aprepitant. Although all patients eventually recovered, the use of aprepitant is currently forbidden in all PM01183 studies.

[27] = in vivo; conditions: rodent, iv
[28] = Pooled logistic regression analysis of phase II data, review of recommended dose; format: in vivo, human; conditions: q3 wk, BSA-based dosing, to limit severe myelosuppression
Description: Owing to these findings, all actively recruiting and planned studies now use BSA-based dosing to limit severe myelosuppression. The original RD of 4.0 mg/m^2 q3 wk has been reviewed and reduced to 3.2 mg/m^2 q3 wk for the same reason.

[29] = test system: patients with metastatic SCLC; conditions: cited from earlier work
[30] = test system: LXFL 529 lung xenograft; assay: In vivo antitumour activity in xenografts; design: species or system athymic mice; conditions: Lung LXFL 529; Q7d × 3; 0.18 mg/kg/day (0.54 mg/m^2/day); optimal day D-28
[31] = test system: PC-3 prostate xenograft; assay: In vivo antitumour activity in xenografts; design: species or system athymic mice; conditions: Prostate PC-3; Q7d × 3; 0.18 mg/kg/day (0.54 mg/m^2/day); optimal day D-27
[32] = Toxicity studies: HR and ECGs of dogs after single or repeated administration; format: in vivo; conditions: doses up to 0.05 mg/kg (1 mg/m^2)
[33] = Cardiovascular parameters (ABP, HR, lead II ECG) after single bolus injection in dogs; format: in vivo; conditions: six hours, doses up to 0.01 mg/kg (0.2 mg/m^2)

Question: Which “most common adverse reaction reported in ≥20% of patients” value [1] does the source give for “atezolizumab: humanized IgG1 monoclonal antibody that targets human PD-L1” here?
Answer: fatigue/asthenia, nausea, alopecia, constipation and decreased appetite

Question: What does the source list for COc1ccc2[nH]c3c(c2c1)CCN[C@]31CS[C@@H]2c3c(OC(C)=O)c(C)c4c(c3[C@H](COC1=O)N1[C@@H]2[C@H]2c3c(cc(C)c(OC)c3O)C[C@@H]([C@@H]1O)N2C)OCO4 [PM01183, lurbinectedin]?
Answer: antitumour activity against bladder, pancreas and prostate xenografts [2]: more moderate antitumour profile; antitumour activity against breast, lung and ovarian xenografts ([2]; different time points): statistically significant antitumour activity (p<0.05); main target organs of toxicity [3]: bone marrow and the liver; main target organs of toxicity [4]: bone marrow and the liver; T/C % [5]: 58%; major CYP isoform involved in the metabolism [6]: CYP3A4; T/C % [7]: 61%; IC50 [8]: 3.5 nM; IC50 [9]: 9.8 nM; IC50 [10]: 2.4 nM; IC50 [11]: 65 nM; IC50 [12]: 1.6 nM; IC50 [13]: 2 nM; IC50 [14]: 1.6 nM; IC50 [15]: 1.7 nM; IC50 [16]: 0.54 nM; IC50 [17]: 1.3 nM; IC50 [18]: 1.3 nM; IC50 [19]: 2.9 nM; IC50 [20]: 1.1 nM; T/C % [21]: 40%; T/C % [22]: 0%; dose-limiting toxicity (DLT) at the RD ([23]; human): grade 4 thrombocytopenia; inter-patient variability in the area under the curve [AUC] ([23]; human): > 50.0%; recommended dose, equivalent flat dose (FD) ([23]; human): 7.0 mg; recommended dose (RD) for phase II studies ([23]; human, iv): 4.0 mg/m^2; PK dose linearity [23]: linearity across all explored doses; tolerability at the RD [23]: generally well tolerated; IC50 [24]: ~0.1 nM; T/C % [25]: 34%; clearance reduction [26]: ~50%; MTD [27]: 0.3 mg/kg; recommended dose, reviewed and reduced [28]: 3.2 mg/m^2; median response duration ([29]; independent review committee, 95% CI 4.9, 6.4): 5.1 months; ORR ([29]; independent review committee, 95% CI 22%, 40%): 30%; ORR ([29]; investigator assessment RECIST 1.1, 105 patients, 3.2 mg/m^2 i.v. every 21 days, 95% CI 26%, 45%): 35%; median response duration ([29]; investigator assessment, 95% CI 4.1, 6.4): 5.3 months; T/C % [30]: 5%; T/C % [31]: 65%; electrophysiological alterations in HR and ECGs [32]: no electrophysiological alterations; effects on heart, ABP, lead II ECG variables (PR, QT, QTcF, QTcV, QRS), ECG gross morphology or rhythm [33]: no effects

— patent US20240415834A1, “LURBINECTEDIN AND ATEZOLIZUMAB COMBINATIONS” (priority 2021, published 2024)
